Experimental data published in ChEMBL document CHEMBL1134082, “Effect of zinc ion on the inhibition of carboxypeptidase A by imidazole-bearing substrate analogues” (Bioorg Med Chem Lett, 2001).

Legend:
[1] = biological target: T1, Carboxypeptidase A1 (Bos taurus, UniProt P00730); assay: Inhibitory constant of carboxypeptidase A (CPA) in absence of Zinc ion.
T1 sequence (P00730 whole entry): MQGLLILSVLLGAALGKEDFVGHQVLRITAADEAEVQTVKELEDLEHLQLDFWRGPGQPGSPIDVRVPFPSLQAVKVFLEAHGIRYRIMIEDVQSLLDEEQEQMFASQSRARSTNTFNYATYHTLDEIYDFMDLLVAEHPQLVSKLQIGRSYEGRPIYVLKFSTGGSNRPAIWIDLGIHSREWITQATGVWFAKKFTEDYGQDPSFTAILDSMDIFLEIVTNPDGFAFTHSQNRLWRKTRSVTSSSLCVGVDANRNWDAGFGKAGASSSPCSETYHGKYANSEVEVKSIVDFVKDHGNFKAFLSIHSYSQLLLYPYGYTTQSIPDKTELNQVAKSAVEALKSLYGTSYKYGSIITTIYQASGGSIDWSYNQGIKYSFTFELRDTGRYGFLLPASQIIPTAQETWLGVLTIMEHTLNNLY

[2] = biological target: T2, Carboxypeptidase A1 (Bos taurus) (UniProt P00730); assay: Cooperative effect of the inhibitory zinc ion in the inhibition of CPA by the compound
T2 sequence (whole entry): T1 sequence (P00730 whole entry)

[3] = biological target: T2, Carboxypeptidase A1 (Bos taurus); assay: Apparent inhibitory constant of carboxypeptidase A (CPA) in presence of Zinc ion
[4] = Extent of enhancement of inhibitory potency of compound against carboxypeptidase A caused by zinc ion.

| Compound | Ki [1] | Cooperative effect [2] | K'i [3] | Ki/K'i [4] |
| --- | --- | --- | --- | --- |
| O=C(O)C(CCCc1cnc[nH]1)Cc1ccccc1 (stereo unspecified) | 750 µM | – | – | – |
| O=C(O)C(Cc1ccccc1)c1c[nH]cn1 (stereo unspecified) | – | 1.88 | 0.49 µM | 0.53 |
| O=C(O)C(Cc1ccccc1)Cc1c[nH]cn1 (stereo unspecified) | 214 µM | 0.0047 | 1.01 µM | 212 |
| O=C(O)C(CCCc1c[nH]cn1)Cc1ccccc1 (stereo unspecified) | – | 0.024 | 18 µM | 41.7 |
| O=C(O)C(CCc1c[nH]cn1)Cc1ccccc1 (stereo unspecified) | 15 µM | 0.0056 | 0.29 µM | 51.7 |
| O=C(O)C(Cc1ccccc1)c1cnc[nH]1 (stereo unspecified) | 0.26 µM | – | – | – |
